In patent US20030139446A1, “Preparation of pharmaceutical salts” (Schering Corporation, priority 2001, published 2003):
Where two headings read alike, the source gives them in different places.

Conditions: diastereomeric ratio 1,2 to 3,4 in solids 95:5

O=C(O)c1ccccc1O [Salicylate]
stability remark for salt solids (salt prepared in EtOH): stable
stability remark for salt solids (salt prepared in iPrOAc): stable
